Laboratory results: US20060142397A1, “Use of a pparalpha agonist and metormin for decreasing the serum triglycerides” (priority 2002, published 2006)
Like-named read-outs stand apart in the source and are kept apart here. Marks after values point to notes of the source that are not given here.

Tests used:
[1] = test system: ob/ob mice; details: for Serum triglycerides T0 + 10: after 10 days of treatment once a day, 100 mg/kg of each drug; for Serum triglycerides T0 + 10 / Serum triglycerides T0: mean ± sem, n=10; for Serum triglycerides T0: beginning of study (T0, baseline), groups later treated once a day with 100 mg/kg of each drug
Protocol: Studies were designed to evaluate the effects of fenofibrate, a PPARα agonist, and metformin as a combination therapy, on triglycerides level in ob/ob mice.
Male homozygous C57BL/Ks/Ola/Hsd/lep ob/ob mice were stabilized for 2 weeks in the animal facilities in a temperature-, humidity- and light-controlled room (21-23° C., 12-12 h light-dark cycle). […] After acclimatization, they were randomized into groups of 10 based on body weight, as follows:
Met 100=mice treated once a day with metformin, 100 mg/kg
Feno 100=mice treated once a day with fenofibrate, 100 mg/kg
Feno100-Met100=mice treated once a day with fenofibrate, 100 mg/kg and metformin, 100 mg/kg.
Serum triglycerides (expressed in g/l) were measured at the beginning and the end of the study for each group.
Statistics: All data were subjected to covariance analysis followed by Tukey test.

[2] = test system: db/db mice; details: for Triglycerides % var. T0/T15: 14 days gavage; for Triglycerides T0: T0 (baseline); for Triglycerides T0 / Triglycerides T15: mean ± SEM; for Triglycerides T15: T15 after 14 days gavage
Protocol: Studies were designed to evaluate the effects of fenofibrate, a PPARα agonist, and metformin as a combination therapy, on triglycerides level in db/db mice.
Male 11/12 weeks old […] J Rj-db (db/db) mice (Janvier, France) were housed in a temperature (19.5-24.5° C.), relative humidity (40-70%) and 12-12 h light-dark cycle (light 7:00 a.m. to 7:00 p.m.)-controlled room, with ad libitum access to filtered (0.22 μm) tap-water and irradiated pelleted laboratory chow (ref. A04, U.A.R., France) throughout the study. They were housed 5 per cage and a 21-day acclimatization period was observed.
The mice were treated during 14 consecutive days (T1 to T14), with morning and afternoon gavages with the various treatments as described below.
At T15, the mice were weighed and blood samples collected without anticoagulant by retro-orbital puncture under CO2/O2 anesthesia.
Triglycerides were measured at T0 and T15 using the multi-parametric analyzer.
Veh/Veh=Vehicle in morning/Vehicle in the afternoon
A300/Veh=metformin, 300 mg/kg in the morning/Vehicle in the afternoon
B100/B100=fenofibrate, 100 mg/kg in the morning/fenofibrate, 100 […]
A300B100/B100=metformin, 300 mg/kg in the morning, and fenofibrate, 100 mg/kg in the morning/fenofibrate, 100 mg/kg in the afternoon
A100/Veh=metformin, 100 mg/kg in the morning/Vehicle in the afternoon
B30/B30=fenofibrate, 30 mg/kg in the morning/fenofibrate, 30 mg/kg in the afternoon
A100B30/B30=metformin, 100 mg/kg in the morning, and fenofibrate, 30 mg/kg […]/fenofibrate, 30 mg/kg in the afternoon

[3] = test system: Zucker rats; details: obese Zucker rats, 30 days, fenofibrate 30 mg/kg p.o. once daily and/or metformin 150 mg/kg p.o. twice daily; for Body weight gain: mean ± SEM, n=8
Protocol: Studies were designed to evaluate the effects of fenofibrate, a PPARα agonist, and metformin as a combination therapy, on body weight in Zucker rats.
Male homozygous Zucker rats of 9 to 11 weeks of age and their lean controls were randomised into groups of 8, based on body weight and fasting plasma insulin levels.
The experimental groups were: • Lean rats, untreated; • Obese rats, treated with the vehicle p.o., twice daily • Obese rats, treated with Fenofibrate, 30 mg/kg, p.o., once daily • Obese rats, treated with Metformin, 150 mg/kg, p.o., twice daily • Obese rats, treated with Fenofibrate, 30 mg/kg, p.o., once daily and metformin, 150 mg/kg, p.o., twice daily.
Body weight was recorded every day during 30 days.

[4] = metformin 100 mg/kg morning and/or fenofibrate 30 mg/kg twice daily
[5] = metformin 300 mg/kg morning and/or fenofibrate 100 mg/kg morning and afternoon
[6] = high-dose groups: metformin 300 mg/kg morning and/or fenofibrate 100 mg/kg morning and afternoon
[7] = low-dose groups: metformin 100 mg/kg morning and/or fenofibrate 30 mg/kg twice daily

Row | SMILES | Effect on triglycerides level (in words) ([1]; 10 days, 100 mg/kg once a day) | Serum triglycerides T0 + 10 [1] [g/L] | Serum triglycerides T0 [1] [g/L] | Triglycerides % var. T0/T15 [2, 4] | Triglycerides % var. T0/T15 [2, 5] | Effect on triglycerides level (in words) ([2]; 14 days treatment) | Triglycerides T0 [2, 6] [g/L] | Triglycerides T0 [2, 7] [g/L] | Triglycerides T15 [2, 4] | Triglycerides T15 [2, 5] [g/L] | Body weight gain (% of change vs vehicle treated group) [3] [%] | Body weight gain [3] [g]
1 | CN(C)C(=N)N=C(N)N [Metformin, metformin] | no effects | 0.74 ± 0.04 | 0.68 ± 0.03 | 7.3° % | −3.3° % | no reduction in triglycerides level | 1.81 ± 0.14 | 1.68 ± 0.12 | 1.79 ± 0.16° g/l | 1.67 ± 0.06 | −5 | 67.2 ± 4.0
2 | CC(C)OC(=O)C(C)(C)Oc1ccc(C(=O)c2ccc(Cl)cc2)cc1 [Fenofibrate, fenofibrate] |  | 0.69 ± 0.03 | 0.72 ± 0.06 | −42.3* % | −53.5* % |  | 1.89 ± 0.13 | 1.72 ± 0.12 | 0.97 ± 0.08 g/L | 0.85 ± 0.08 | −26 | 52.0 ± 5.8
